Values of other authors as cited in patent US9050475B2, “High SPF sunscreen compositions” (MD SOLARSCIENCES CORP., priority 2010, dated 2015).

Conditions: known UV-A or UV-B protection properties of FDA-approved sunscreens

Row | Range Covered | SMILES
1 | UV-B (UV-B: 290-320 nm) | CCCCC(CC)COC(=O)c1ccc(N(C)C)cc1 (stereo not shown) [Padimate O, octyl dimethyl PABA]
2 | UV-B (UV-B: 290-320 nm) | CCOCCOC(=O)C=Cc1ccc(OC)cc1 [Cinoxate, 2-ethoxyethylp-methoxycinnamate]
3 | UV-B, UV-A2 | COc1ccc(C(=O)c2ccccc2)c(O)c1 [Oxybenzone]

The next lines start with the compound.

Row | SMILES | Range Covered
4 | CC1CC(OC(=O)c2ccccc2O)CC(C)(C)C1 (stereo not shown) [Homosalate] | UV-B (UV-B: 290-320 nm)
5 | CCCCC(CC)COC(=O)c1ccccc1O (stereo not shown) [Octisalate, 2-ethylhexyl salicylate] | UV-B (UV-B: 290-320 nm)
6 | CCCCC(CC)COC(=O)C(C#N)=C(c1ccccc1)c1ccccc1 (stereo not shown) [Octocrylene, 2-ethylhexyl-2-cyano-3.3 diphenylacrylate] | UV-B (UV-B: 290-320 nm)
7 | COc1cc(O)c(C(=O)c2ccccc2)cc1S(=O)(=O)O [Sulisobenzone] | UV-B, UV-A2
